Measured values taken from US8937058B2, “17-hydroxy-19-nor-21-carboxylic acid-steroid γ-lactone derivative, use thereof, and medicament containing the derivative” (priority 2007, dated 2015).
Read-outs that look alike come from different tables or passages of the source.

Legend:
[1] = target: T1, mineralocorticoid receptor (Homo sapiens (Human), UniProt P08235); assay: Mineralocorticoid receptor binding test (displacement of 3H-aldosterone, cytosol from Hi5 insect cells); conditions: reference substance 3H-aldosterone
T1 sequence (P08235 whole entry): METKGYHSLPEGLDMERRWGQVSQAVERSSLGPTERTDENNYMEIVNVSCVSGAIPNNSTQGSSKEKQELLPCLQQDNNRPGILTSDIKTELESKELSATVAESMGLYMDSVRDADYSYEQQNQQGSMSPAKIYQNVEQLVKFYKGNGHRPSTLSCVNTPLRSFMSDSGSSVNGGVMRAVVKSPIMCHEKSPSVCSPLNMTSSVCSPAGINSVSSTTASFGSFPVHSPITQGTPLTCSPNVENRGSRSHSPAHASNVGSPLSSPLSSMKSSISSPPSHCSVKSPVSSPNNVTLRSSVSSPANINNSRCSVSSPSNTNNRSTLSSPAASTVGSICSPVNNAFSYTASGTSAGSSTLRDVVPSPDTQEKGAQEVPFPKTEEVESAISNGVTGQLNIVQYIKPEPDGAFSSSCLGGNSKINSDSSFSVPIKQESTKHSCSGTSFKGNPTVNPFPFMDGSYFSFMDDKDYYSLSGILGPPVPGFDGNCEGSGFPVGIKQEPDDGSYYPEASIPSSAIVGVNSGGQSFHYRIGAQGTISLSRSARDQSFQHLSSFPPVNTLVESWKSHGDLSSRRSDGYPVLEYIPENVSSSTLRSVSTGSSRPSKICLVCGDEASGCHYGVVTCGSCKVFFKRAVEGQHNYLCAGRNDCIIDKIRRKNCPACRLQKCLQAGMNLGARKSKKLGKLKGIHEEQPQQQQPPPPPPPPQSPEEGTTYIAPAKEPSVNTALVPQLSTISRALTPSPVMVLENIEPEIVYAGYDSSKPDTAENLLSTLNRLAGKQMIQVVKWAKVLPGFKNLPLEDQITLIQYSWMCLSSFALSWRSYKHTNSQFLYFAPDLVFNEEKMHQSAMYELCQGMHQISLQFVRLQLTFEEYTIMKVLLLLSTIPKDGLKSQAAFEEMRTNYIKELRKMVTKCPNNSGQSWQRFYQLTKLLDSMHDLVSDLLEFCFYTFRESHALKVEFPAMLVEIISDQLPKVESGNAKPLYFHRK
Procedure: 2. Mineralocorticoid Receptor Binding Test:
The test was carried out as in 1., with the following modifications: cytosol from mineralocorticoid receptor-expressing insect cells (Hi5) was used, and the reference substance was ^3H-aldosterone.

[2] = target: T1, mineralocorticoid receptor; assay: Antimineralocorticoid action by transactivation test (MDCK luciferase reporter cells); type: cell-based; conditions: in-vitro transactivation, 1 nM aldosterone; for IC50: read-out: Mineralocorticoid receptor Antagonism IC50
Procedure: 5. Determination of Antimineralocorticoid Action by Means of Transactivation Tests:
The antimineralocorticoid activity of the test substances was determined as for the transactivation tests described above.
The following modifications were undertaken: In this case reporter cell lines were used (MDCK cells) that express the human mineralocorticoid receptor, and transiently contain a reporter construct that contains luciferase under the control of a steroid hormone-responsive promoter.
For determination of antimineralocorticoid efficacy, 1 nM aldosterone (SIGMA A-6628, Lot 22H4033) was added to the cells, to achieve almost maximum stimulation of the reporter gene. Inhibition of the effect indicated a mineralocorticoid-antagonistic action of the substances (Table 2; for comparison, corresponding values for drospirenone (A)).

[3] = target: T2, androgen receptor (Homo sapiens (Human), UniProt P10275); assay: cell-based; conditions: for Androgen receptor Agonism efficacy / Androgen receptor Antagonism efficacy: in-vitro transactivation, PC3 cells; for Androgen receptor Antagonism efficacy: 0.05 nM R1881
T2 sequence (P10275 whole entry, species assumed): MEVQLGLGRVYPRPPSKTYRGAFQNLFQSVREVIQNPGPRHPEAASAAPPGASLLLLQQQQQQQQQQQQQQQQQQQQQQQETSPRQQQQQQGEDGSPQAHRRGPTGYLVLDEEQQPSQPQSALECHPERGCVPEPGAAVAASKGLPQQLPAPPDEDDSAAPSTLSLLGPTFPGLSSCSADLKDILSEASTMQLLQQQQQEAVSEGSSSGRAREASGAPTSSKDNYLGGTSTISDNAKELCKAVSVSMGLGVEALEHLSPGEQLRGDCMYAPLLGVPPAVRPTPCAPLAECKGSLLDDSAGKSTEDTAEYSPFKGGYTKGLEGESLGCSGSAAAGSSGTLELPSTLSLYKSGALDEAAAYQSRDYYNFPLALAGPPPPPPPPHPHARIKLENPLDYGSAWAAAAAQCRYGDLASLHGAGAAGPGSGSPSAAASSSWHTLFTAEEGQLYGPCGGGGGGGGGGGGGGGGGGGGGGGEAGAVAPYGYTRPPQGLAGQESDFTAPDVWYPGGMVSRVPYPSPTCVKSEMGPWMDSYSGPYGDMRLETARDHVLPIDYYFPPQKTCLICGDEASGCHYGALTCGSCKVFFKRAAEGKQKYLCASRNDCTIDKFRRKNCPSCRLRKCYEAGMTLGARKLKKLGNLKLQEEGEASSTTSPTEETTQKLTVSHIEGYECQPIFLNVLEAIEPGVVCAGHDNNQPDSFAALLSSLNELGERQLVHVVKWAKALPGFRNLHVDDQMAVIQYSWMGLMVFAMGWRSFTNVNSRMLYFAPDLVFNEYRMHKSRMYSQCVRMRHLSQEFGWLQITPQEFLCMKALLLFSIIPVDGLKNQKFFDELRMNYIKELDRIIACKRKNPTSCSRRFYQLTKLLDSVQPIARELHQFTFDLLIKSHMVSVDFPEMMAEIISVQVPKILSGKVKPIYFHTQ
Procedure: 6. Determination of Androgenic/Antiandrogenic Action by Means of Transactivation Tests:
The androgenic/antiandrogenic action of the test substances was determined as for the transactivation tests described above.
The following modifications were made: In this case reporter cell lines were used (PC3 cells) that express the androgen receptor, and a reporter construct that contains luciferase under the control of a steroid hormone-responsive promoter.
For determination of the antiandrogenic efficacy, 0.05 nM R1881 was added to the cells, in order to achieve almost maximum stimulation of the reporter gene.

[4] = target: progesterone receptor (Homo sapiens (Human), UniProt P06401); conditions: for Progesterone receptor (PR) Competition factor: CF of 1 = affinity of progesterone, CF >1 lower affinity; for CF PR/CF MR: ratio of the competition factors CF(PR) and CF(MR); for IC50: read-out: Progesterone receptor (PR) IC50, receptor binding, 3H-progesterone displacement
Chain of progesterone receptor (P06401 whole entry, species assumed): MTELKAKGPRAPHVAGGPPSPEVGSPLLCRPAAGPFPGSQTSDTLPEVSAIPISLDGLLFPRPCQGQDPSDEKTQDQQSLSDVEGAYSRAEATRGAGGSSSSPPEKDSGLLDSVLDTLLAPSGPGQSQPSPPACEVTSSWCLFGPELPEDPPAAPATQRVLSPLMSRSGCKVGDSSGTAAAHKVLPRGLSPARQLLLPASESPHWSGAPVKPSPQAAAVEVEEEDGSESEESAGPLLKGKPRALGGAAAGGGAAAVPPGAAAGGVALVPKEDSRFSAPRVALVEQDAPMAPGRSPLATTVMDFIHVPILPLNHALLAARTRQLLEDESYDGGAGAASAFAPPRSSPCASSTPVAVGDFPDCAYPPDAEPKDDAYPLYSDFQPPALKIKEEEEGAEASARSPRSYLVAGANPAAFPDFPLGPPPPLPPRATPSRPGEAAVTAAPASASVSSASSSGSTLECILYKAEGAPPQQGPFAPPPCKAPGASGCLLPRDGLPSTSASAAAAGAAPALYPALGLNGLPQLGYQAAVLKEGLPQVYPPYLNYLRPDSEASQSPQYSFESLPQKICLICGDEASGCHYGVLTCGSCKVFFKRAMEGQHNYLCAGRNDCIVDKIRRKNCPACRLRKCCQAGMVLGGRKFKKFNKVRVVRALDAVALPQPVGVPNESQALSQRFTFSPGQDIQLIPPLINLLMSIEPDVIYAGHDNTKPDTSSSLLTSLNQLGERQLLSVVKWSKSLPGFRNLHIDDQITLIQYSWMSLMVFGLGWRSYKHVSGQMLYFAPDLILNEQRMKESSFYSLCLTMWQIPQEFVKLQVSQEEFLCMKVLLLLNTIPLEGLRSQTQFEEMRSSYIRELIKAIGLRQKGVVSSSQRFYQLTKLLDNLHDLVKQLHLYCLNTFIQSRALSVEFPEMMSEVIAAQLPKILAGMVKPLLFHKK
Procedure: Progesterone Receptor Binding Test:
Using cytosol from progesterone receptor-expressing insect cells (Hi5), competitive binding to the progesterone receptor was determined from the ability to displace ^3H-progesterone as reference substance from the receptor.

[5] = target: T2, androgen receptor; conditions: for IC50: read-out: Androgen receptor IC50, receptor binding, 3H-testosterone displacement; for Androgen receptor Competition factor: reference substance 3H-testosterone
Procedure: 3. Androgen Receptor Binding Test:
The test was carried out as in 1., with the following modifications: cytosol from androgen receptor-expressing insect cells (Hi5) was used, and the reference substance was ^3H-testosterone.

[6] = target: fusion protein from the PR-ligand-binding domain and a Gal4-transactivation domain (Homo sapiens (Human), UniProt P06401); assay: cell-based; conditions: for Progesterone receptor Agonism efficacy / Progesterone receptor Agonism EC50: in-vitro transactivation, CHO K1 reporter cells; for Progesterone receptor Agonism EC50: 16 hours
Chain of fusion protein from the PR-ligand-binding domain and a Gal4-transactivation domain (P06401 679-913): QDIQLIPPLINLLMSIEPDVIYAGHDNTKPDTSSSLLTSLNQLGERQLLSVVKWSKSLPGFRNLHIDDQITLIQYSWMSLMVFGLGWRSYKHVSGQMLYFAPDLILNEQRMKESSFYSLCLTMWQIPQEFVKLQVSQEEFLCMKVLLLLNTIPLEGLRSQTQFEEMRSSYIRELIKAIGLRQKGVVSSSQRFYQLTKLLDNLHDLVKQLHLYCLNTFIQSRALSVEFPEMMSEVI
Procedure: 4. Determination of Progestational Action by Means of Transactivation Tests:
The test compounds were added eight hours later, and the cells were incubated with the compounds for 16 hours. The tests were carried out in triplicate. At the end of incubation the medium containing the effector was removed and replaced with lysis buffer. After luciferase assay substrate (Promega, #E1501) had been added, the 96-well plates were then put in a microplate luminometer (Pherastar, BMG Labtech), and the luminescence was measured. The IC50 values were evaluated using software for calculating dose-effect relations.

C=C[C@@H]1CC2=CC(=O)CC[C@@H]2[C@H]2CC[C@@]3(C)[C@@H](CC[C@@]34C=CC(=O)O4)[C@@H]21 (stereo in doubt) [Example 4A, 17β-Hydroxy-7α-vinyl-19-nor-17α-pregna-4,20(Z)-dien-3-one-21-carboxylic acid γ-lactone]
Mineralocorticoid receptor (MR) Competition factor [1]: 18.7 | Mineralocorticoid receptor Antagonism efficacy [2]: 120.0% | IC50 [2]: 28 nM | EC50 [3]: 13 nM | IC50 [3]: 1000 nM | Androgen receptor Agonism efficacy [3]: 53.6% | Androgen receptor Antagonism efficacy [3]: 5% | Progesterone receptor (PR) Competition factor [4]: 27.47 | CF PR/CF MR [4]: 1.47 | IC50 [4]: 760 nM | IC50 [5]: 130 nM | Androgen receptor Competition factor [5]: 4.7 | EC50 [6]: 140 nM | Progesterone receptor Agonism efficacy [6]: 67.5%

C[C@]12CC[C@H]3[C@@H](CC4(CC4)C4=CC(=O)CC[C@@H]43)[C@@H]1CC[C@@]21C=CC(=O)O1 [Example 18, 6,6-(1,2-Ethanediyl)-17β-hydroxy-19-nor-17α-pregna-4,20(Z)-dien-3-one-21-carboxylic acid γ-lactone]
Mineralocorticoid receptor Antagonism efficacy [2]: 89.3% | IC50 [2]: 520 nM | EC50 [3]: 3.7 nM | IC50 [3]: 1000 nM | Androgen receptor Agonism efficacy [3]: 87.91% | Androgen receptor Antagonism efficacy [3]: 5%

CC[C@@H]1CC2=CC(=O)CC[C@@H]2[C@H]2CC[C@@]3(CC)[C@@H](CC[C@@]34C=CC(=O)O4)[C@H]12 (stereo in doubt) [Example 9A, 17β-Hydroxy-7α-ethyl-18-methyl-19-nor-17α-pregna-4,20(Z)-dien-3-one-21-carboxylic acid γ-lactone]
Mineralocorticoid receptor (MR) Competition factor [1]: 1.6 | Mineralocorticoid receptor Antagonism efficacy [2]: 97.6% | IC50 [2]: 130 nM | EC50 [3]: 5.1 nM | IC50 [3]: 1000 nM | Androgen receptor Agonism efficacy [3]: 63.33% | Androgen receptor Antagonism efficacy [3]: 5% | Progesterone receptor (PR) Competition factor [4]: 25.12 | CF PR/CF MR [4]: 15.70 | IC50 [4]: 670 nM | IC50 [5]: 76 nM | Androgen receptor Competition factor [5]: 2.3 | Progesterone receptor Agonism EC50 [6]: inactive

CC[C@]12CC[C@H]3[C@@H](C[C@@H](CO)C4=CC(=O)CC[C@@H]43)[C@@H]1CC[C@@]21C=CC(=O)O1 [Example 15]
Mineralocorticoid receptor Antagonism IC50 [2]: inactive | EC50 [3]: 1000 nM | IC50 [3]: 1000 nM | Androgen receptor Agonism efficacy [3]: 5% | Androgen receptor Antagonism efficacy [3]: 5% | Progesterone receptor Agonism EC50 [6]: inactive

C[C@@H]1CC2=CC(=O)CC[C@@H]2[C@H]2CC[C@@]3(C)[C@@H](CC[C@@]34C=CC(=O)O4)[C@@H]21 (stereo in doubt) [Example 2A, 17β-Hydroxy-7α-methyl-19-nor-17α-pregna-4,20(Z)-dien-3-one-21-carboxylic acid γ-lactone]
Mineralocorticoid receptor (MR) Competition factor [1]: 7.6 | Mineralocorticoid receptor Antagonism efficacy [2]: 129.8% | IC50 [2]: 180 nM | Progesterone receptor (PR) Competition factor [4]: 8.33 | IC50 [4]: 310 nM | EC50 [6]: 220 nM | Progesterone receptor Agonism efficacy [6]: 44.4%

C[C@]12CC[C@H]3[C@@H]([C@H](C4CC4)CC4=CC(=O)CC[C@@H]43)[C@@H]1CC[C@@]21C=CC(=O)O1 (stereo in doubt) [Example 12A, 17β-Hydroxy-7α-cyclopropyl-19-nor-17α-pregna-4,20(Z)-dien-3-one-21-carboxylic acid γ-lactone]
Mineralocorticoid receptor (MR) Competition factor [1]: 12.1 | Mineralocorticoid receptor Antagonism efficacy [2]: 116.9% | IC50 [2]: 110 nM | EC50 [3]: 67 nM | IC50 [3]: 48 nM | Androgen receptor Agonism efficacy [3]: 21.13% | Androgen receptor Antagonism efficacy [3]: 69.75% | Progesterone receptor (PR) Competition factor [4]: 109.04 | CF PR/CF MR [4]: 9.01 | IC50 [4]: 2600 nM | IC50 [5]: 300 nM | Androgen receptor Competition factor [5]: 9.6 | Progesterone receptor Agonism EC50 [6]: inactive

CC[C@]12CC[C@H]3[C@@H](C=CC4=CC(=O)CC[C@@H]43)[C@@H]1CC[C@@]21C=CC(=O)O1 (stereo in doubt) [Example 7, 17β-Hydroxy-18-methyl-19-nor-17α-pregna-4,6,20(Z)-trien-3-one-21-carboxylic acid γ-lactone]
Mineralocorticoid receptor (MR) Competition factor [1]: 3.9 | Mineralocorticoid receptor Antagonism efficacy [2]: 94.2% | IC50 [2]: 100 nM | EC50 [3]: 1000 nM | IC50 [3]: 100 nM | Androgen receptor Agonism efficacy [3]: 5% | Androgen receptor Antagonism efficacy [3]: 59.23% | Progesterone receptor (PR) Competition factor [4]: 6.15 | CF PR/CF MR [4]: 1.58 | IC50 [4]: 110 nM | IC50 [5]: 2600 nM | Androgen receptor Competition factor [5]: 112.0 | Progesterone receptor Agonism EC50 [6]: inactive

C=C[C@@H]1CC2=CC(=O)CC[C@@H]2[C@H]2CC[C@@]3(CC)[C@@H](CC[C@@]34C=CC(=O)O4)[C@@H]21 (stereo in doubt) [Example 10A, 17β-Hydroxy-7α-vinyl-18-methyl-19-nor-17α-pregna-4,20(Z)-dien-3-one-21-carboxylic acid γ-lactone]
Mineralocorticoid receptor (MR) Competition factor [1]: 5.1 | Mineralocorticoid receptor Antagonism efficacy [2]: 80.0% | IC50 [2]: 940 nM | EC50 [3]: 1.3 nM | IC50 [3]: 1000 nM | Androgen receptor Agonism efficacy [3]: 74.78% | Androgen receptor Antagonism efficacy [3]: 5% | Progesterone receptor (PR) Competition factor [4]: 18.90 | CF PR/CF MR [4]: 3.71 | IC50 [4]: 450 nM | IC50 [5]: 50 nM | Androgen receptor Competition factor [5]: 1.8 | EC50 [6]: 140 nM | Progesterone receptor Agonism efficacy [6]: 52.4%

CC[C@]12CC[C@H]3[C@@H](CC4(CC4)C4=CC(=O)CC[C@@H]43)[C@@H]1CC[C@@]21C=CC(=O)O1 [Example 16, 6,6-(1,2-Ethanediyl)-17β-hydroxy-18-methyl-19-nor-17α-pregna-4,20(Z)-dien-3-one-21-carboxylic acid γ-lactone]
Mineralocorticoid receptor Antagonism efficacy [2]: 107.9% | IC50 [2]: 75 nM | EC50 [3]: 1.1 nM | IC50 [3]: 1000 nM | Androgen receptor Agonism efficacy [3]: 91.19% | Androgen receptor Antagonism efficacy [3]: 5%

C[C@]12CCC(=O)C=C1[C@@H]1C[C@@H]1[C@H]1[C@@H]3[C@@H]4C[C@@H]4[C@@]4(CCC(=O)O4)[C@@]3(C)CC[C@@H]12 [A, 6β,7β;15γ,16β-dimethylene-3-oxo-17-pregn-4-ene-21,17β-carbolactone, reference compound]
Mineralocorticoid receptor Antagonism efficacy [2]: 64.1% | Progesterone receptor Agonism efficacy [6]: 72.2%

C[C@]12CC[C@H]3[C@@H](C[C@@H](CO)C4=CC(=O)CC[C@@H]43)[C@@H]1CC[C@@]21C=CC(=O)O1 [Example 17, 17β-Hydroxy-6β-hydroxymethylene-19-nor-17α-pregna-4,20(Z)-dien-3-one-21-carboxylic acid γ-lactone]
Mineralocorticoid receptor Antagonism IC50 [2]: inactive | Progesterone receptor Agonism EC50 [6]: inactive

C[C@]12CC[C@H]3[C@@H](C=CC4=CC(=O)CC[C@@H]43)[C@@H]1CC[C@@]21C=CC(=O)O1 (stereo in doubt) [Example 1, 17β-Hydroxy-19-nor-17α-pregna-4,6,20(Z)-trien-3-one-21-carboxylic acid γ-lactone]
Mineralocorticoid receptor (MR) Competition factor [1]: 33.0 | Mineralocorticoid receptor Antagonism efficacy [2]: 93.2% | IC50 [2]: 870 nM | EC50 [3]: 130 nM | IC50 [3]: 1000 nM | Androgen receptor Agonism efficacy [3]: 44.27% | Androgen receptor Antagonism efficacy [3]: 5% | IC50 [5]: 10000 nM | Androgen receptor Competition factor [5]: 1000.0

CC[C@]12CC[C@H]3[C@@H](CCC4=CC(=O)CC[C@@H]43)[C@@H]1CC[C@@]21C=CC(=O)O1 (stereo in doubt) [Example 6, 17β-Hydroxy-18-methyl-19-nor-17α-pregna-4,20(Z)-dien-3-one-21-carboxylic acid γ-lactone]
Mineralocorticoid receptor (MR) Competition factor [1]: 2.4 | Mineralocorticoid receptor Antagonism efficacy [2]: 109.6% | IC50 [2]: 12 nM | EC50 [3]: 53 nM | IC50 [3]: 19 nM | Androgen receptor Agonism efficacy [3]: 59.8% | Androgen receptor Antagonism efficacy [3]: 33.8% | Progesterone receptor (PR) Competition factor [4]: 3.07 | CF PR/CF MR [4]: 1.28 | IC50 [4]: 45 nM | IC50 [5]: 28 nM | Androgen receptor Competition factor [5]: 3.4
